40 compounds from ChEMBL document CHEMBL4346765, “Design, synthesis and biological evaluation of novel dithiocarbamate-substituted diphenylaminopyrimidine derivatives as BTK inhibitors” (Bioorg Med Chem, 2019) can be followed below.

The target of assay [1] is Tyrosine-protein kinase BTK (Homo sapiens, UniProt Q06187). Description: Inhibition of human recombinant full length BTK expressed in baculovirus in Sf9 insect cells using Poly (4:1 Glu, Tyr) as substrate incubated for 1 hr by ADP-Glo assay. In general terms: In ADP-Glo the light output rises with the ADP produced.
Chain of Tyrosine-protein kinase BTK (Q06187 whole entry): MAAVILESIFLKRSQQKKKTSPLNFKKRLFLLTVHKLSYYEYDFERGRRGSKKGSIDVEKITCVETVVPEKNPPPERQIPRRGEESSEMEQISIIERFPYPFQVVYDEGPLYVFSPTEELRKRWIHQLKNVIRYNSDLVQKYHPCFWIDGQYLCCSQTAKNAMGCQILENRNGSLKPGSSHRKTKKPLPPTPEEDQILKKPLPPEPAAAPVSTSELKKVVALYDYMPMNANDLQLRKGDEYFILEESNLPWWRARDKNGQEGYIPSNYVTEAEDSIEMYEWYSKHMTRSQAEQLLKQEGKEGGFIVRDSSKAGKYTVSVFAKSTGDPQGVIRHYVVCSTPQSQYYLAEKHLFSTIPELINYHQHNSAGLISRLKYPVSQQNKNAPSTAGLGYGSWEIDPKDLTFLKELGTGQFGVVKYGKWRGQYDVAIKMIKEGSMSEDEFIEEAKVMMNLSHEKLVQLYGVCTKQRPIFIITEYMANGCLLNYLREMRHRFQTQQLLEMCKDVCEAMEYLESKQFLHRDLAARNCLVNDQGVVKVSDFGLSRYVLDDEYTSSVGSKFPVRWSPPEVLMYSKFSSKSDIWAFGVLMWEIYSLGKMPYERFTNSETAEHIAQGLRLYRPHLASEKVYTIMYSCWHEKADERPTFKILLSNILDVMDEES
The next assay relates to Ramos. Description: Antiproliferative activity against human Ramos cells assessed as reduction in cell growth incubated for 48 hrs by MTS assay. In general terms: Formazan colour is commonly taken as a measure of viable cells.
For another assay, the system named is Raji. Description: Antiproliferative activity against human Raji cells assessed as reduction in cell growth incubated for 48 hrs by MTS assay.

For `C=CC(=O)Nc1cccc(Nc2nc(Nc3ccc(OCCSC(=S)N(C)C)cc3)ncc2F)c1`, the figures for the IC50 (in assay [1]; in the assay with Ramos; in the assay on Raji) were 0.00144 µM, 9.53 µM and 13.8 µM, respectively.
The like results for `C=CC(=O)Nc1cccc(Nc2nc(Nc3ccc(OCCSC(=S)NCc4ccccc4)cc3)ncc2F)c1` were, in that order, 0.0108 µM, 1.38 µM and 2.22 µM.
The like results for `C=CC(=O)Nc1cccc(Nc2nc(Nc3ccc(OCCSC(=S)N4CCN(C)CC4)cc3)ncc2F)c1` were, in that order, 0.0356 µM, 1.9 µM and 3.9 µM.
The like results for `C=CC(=O)Nc1cccc(Nc2nc(Nc3ccc(OCCSC(=S)N4CCCC4)cc3)ncc2F)c1` were, in that order, 0.154 µM, 2.97 µM and 15.3 µM.
On to `C=CC(=O)Nc1cccc(Nc2nc(Nc3ccc(OCCSC(=S)NC4CC4)cc3)ncc2F)c1`, for which the results for the 50% inhibitory concentration (IC50) (in assay [1]; with Ramos; in the assay with Raji) were 0.0025 µM, 5.09 µM and 6.29 µM, respectively.
The like results for `C=CC(=O)Nc1cccc(Nc2nc(Nc3ccc(OCCSC(=S)N(CC)CC)cc3)ncc2F)c1` were, in that order, 0.0233 µM, 3.54 µM and 13.7 µM.
In the case of `C=CC(=O)Nc1cccc(Nc2nc(Nc3ccc(OCCSC(=S)NC)cc3)ncc2F)c1`, the concentration for half-maximal inhibition (IC50) in assay [1] was 0.00821 µM; in the assay with Ramos it was 5.94 µM; in the assay on Raji it was 7.17 µM.
Taken in the same sequence, the figures for `C=CC(=O)Nc1cccc(Nc2nc(Nc3ccc(OCCSC(=S)NC4CCCCC4)cc3)ncc2F)c1` were 0.115 µM, 9.46 µM and 9.75 µM.
The like results for `C=CC(=O)Nc1cccc(Nc2nc(Nc3ccc(OCCCCSC(=S)N4CCN(C(C)C)CC4)cc3)ncc2F)c1` were, in that order, 0.131 µM, 2.92 µM and 4.45 µM.
For `C=CC(=O)Nc1cccc(Nc2nc(Nc3ccc(OCCSC(=S)NCC)cc3)ncc2F)c1`, the figures for the IC50 (in assay [1]; in the assay with Ramos; in the assay with Raji) were 0.015 µM, 3.44 µM and 8.64 µM, respectively.
Taken in the same sequence, the figures for `C=CC(=O)Nc1cccc(Nc2nc(Nc3ccc(OCCSC(=S)N4CC(C)OC(C)C4)cc3)ncc2F)c1` (centres undefined) were 0.0271 µM, 2.29 µM and 6.13 µM.
The like results for `C=CC(=O)Nc1cccc(Nc2nc(Nc3ccc(OCCCSC(=S)N(C)C)cc3)ncc2F)c1` were, in that order, 0.0139 µM, 4.36 µM and 4.98 µM.
Taken in the same sequence, the figures for `C=CC(=O)Nc1cccc(Nc2nc(Nc3ccc(NC(=O)CCSC(=S)NCc4cccnc4)cc3)ncc2F)c1` were 0.0237 µM, 1.22 µM and 0.34 µM.
Take `C=CC(=O)Nc1cccc(Nc2nc(Nc3ccc(NC(=O)CSC(=S)NCc4cccnc4)cc3)ncc2F)c1`: the values for the IC50 (in assay [1]; in the assay on Ramos; in the assay with Raji) were 0.0184 µM, 1.13 µM and 0.31 µM, respectively.
Take `C=CC(=O)Nc1cccc(Nc2nc(Nc3ccc(OCCSC(=S)N4CCCCC4)cc3)ncc2F)c1`: the figures for the IC50 (in assay [1]; with Ramos; in the assay on Raji) were 0.0836 µM, 7.65 µM and 13.4 µM, respectively.
For `C=CC(=O)Nc1cccc(Nc2nc(Nc3ccc(OCCSC(=S)N4CCN(C(=O)OC(C)(C)C)CC4)cc3)ncc2F)c1`, the IC50 in assay [1] is 0.264 µM; in the assay on Ramos, 14.5 µM; in the assay on Raji, above 40 µM.
The like results for `C=CC(=O)Nc1cccc(Nc2nc(Nc3ccc(OCCSC(=S)NC(C)C)cc3)ncc2F)c1` were, in that order, 0.0982 µM, 9.31 µM and 9.58 µM.
In the case of `C=CC(=O)N1CCC[C@@H](n2nc(-c3ccc(Oc4ccccc4)cc3)c3c(N)ncnc32)C1` [IBRUTINIB], the results for the concentration for half-maximal inhibition (IC50) with Ramos and in the assay with Raji were 1.88 µM and 17.7 µM, respectively.
For the compound `C=CC(=O)Nc1cccc(Nc2nc(Nc3ccc(OCCSC(=S)NCc4ccccn4)cc3)ncc2F)c1`, the results for the IC50 (in assay [1]; in the assay on Ramos; with Raji) were 0.0185 µM, 2.67 µM and 10.3 µM, respectively.
`C=CC(=O)Nc1cccc(Nc2nc(Nc3ccc(OCCCCSC(=S)NCc4cccnc4)cc3)ncc2F)c1`: the half-maximal inhibitory concentration (IC50) in assay [1] turned out to be 0.0165 µM; with Ramos it was 1.49 µM; with Raji, 1.05 µM.
Taken in the same sequence, the figures for `C=CC(=O)Nc1cccc(Nc2nc(Nc3ccc(OCCSC(=S)NCc4ccc(OC)cc4)cc3)ncc2F)c1` were 0.00568 µM, 3.22 µM and 1.28 µM.
The like results for `C=CC(=O)Nc1cccc(Nc2nc(Nc3ccc(OCCSC(=S)N4CCN(C(C)=O)CC4)cc3)ncc2F)c1` were, in that order, 0.0803 µM, 2.76 µM and 3.53 µM.
For the compound `C=CC(=O)Nc1cccc(Nc2nc(Nc3ccc(OCCSC(=S)NCc4ccncc4)cc3)ncc2F)c1`, the concentration for half-maximal inhibition (IC50) in assay [1] came to 0.00736 µM; with Ramos, 0.574 µM; in the assay on Raji, 0.501 µM.
Taken in the same sequence, the figures for `C=CC(=O)Nc1cccc(Nc2nc(Nc3ccc(OCCSC(=S)N4CCN(CCO)CC4)cc3)ncc2F)c1` were 0.0683 µM, 3.74 µM and 7.76 µM.
Taken in the same sequence, the figures for `C=CC(=O)Nc1cccc(Nc2nc(Nc3ccc(OCCSC(=S)N4CCOCC4)cc3)ncc2F)c1` were 0.0299 µM, 2.87 µM and 4.24 µM.
The like results for `C=CC(=O)Nc1cccc(Nc2nc(Nc3ccc(OCCSC(=S)N(C)Cc4cccnc4)cc3)ncc2F)c1` were, in that order, 0.0307 µM, 2.73 µM and 4.84 µM.
In the case of `C=CC(=O)Nc1cccc(Nc2nc(Nc3ccc(OCCSC(=S)NCc4cc(OC)c(OC)c(OC)c4)cc3)ncc2F)c1`, the concentration for half-maximal inhibition (IC50) came out at 0.0486 µM in assay [1], 2.25 µM with Ramos and 0.561 µM in the assay with Raji.
The like results for `C=CC(=O)Nc1cccc(Nc2nc(Nc3ccc(OCCSC(=S)NCc4cccc(F)c4)cc3)ncc2F)c1` were, in that order, 0.0069 µM, 1.24 µM and 1.15 µM.
The like results for `C=CCNC(=S)SCCOc1ccc(Nc2ncc(F)c(Nc3cccc(NC(=O)C=C)c3)n2)cc1` were, in that order, 0.0917 µM, 4.32 µM and 13.3 µM.
The like results for `C=CC(=O)Nc1cccc(Nc2nc(Nc3ccc(OCCSC(=S)NCc4ccc(C#N)cc4)cc3)ncc2F)c1` were, in that order, 0.00858 µM, 1.03 µM and 1.22 µM.
With `C=CC(=O)Nc1cccc(Nc2nc(Nc3ccc(OCCSC(=S)N(CCCC)CCCC)cc3)ncc2F)c1`, the IC50 in assay [1] was found to be 0.125 µM; with Ramos, 9.21 µM; in the assay on Raji it was 20.9 µM.
Taken in the same sequence, the figures for `C=CC(=O)Nc1cccc(Nc2nc(Nc3ccc(OCCSC(=S)NCc4cnccn4)cc3)ncc2F)c1` were 0.00849 µM, 4.42 µM and 6.57 µM.
Taken in the same sequence, the figures for `C=CC(=O)Nc1cccc(Nc2nc(Nc3ccc(OCCCCSC(=S)N(C)C)cc3)ncc2F)c1` were 0.0354 µM, 15.4 µM and 10.2 µM.
On to `C=CC(=O)Nc1cccc(Nc2nc(Nc3ccc(OCCSC(=S)N4CCN(c5ccccc5)CC4)cc3)ncc2F)c1`, for which the results for the IC50 (in assay [1]; in the assay on Ramos; with Raji) were 0.386 µM, 20.6 µM and 15 µM, respectively.
For `C=CC(=O)Nc1cccc(Nc2nc(Nc3ccc(OCCSC(=S)N4CCN(C(C)C)CC4)cc3)ncc2F)c1`, the half-maximal inhibitory concentration (IC50) in assay [1] stood at 0.0569 µM; in the assay with Ramos it was 1.02 µM; in the assay with Raji, 3.93 µM.
Taken in the same sequence, the figures for `C=CC(=O)Nc1cccc(Nc2nc(Nc3ccc(OCCSC(=S)N4CCc5ccccc5C4)cc3)ncc2F)c1` were above 0.5 µM, above 40 µM and above 40 µM.
Regarding `C=CC(=O)Nc1cccc(Nc2nc(Nc3ccc(OCCCSC(=S)N4CCN(C(C)C)CC4)cc3)ncc2F)c1`, the IC50 is 0.0632 µM in assay [1], 1.36 µM with Ramos and 8.25 µM with Raji.
The like results for `C=CC(=O)Nc1cccc(Nc2nc(Nc3ccc(OCCSC(=S)N4CCN(Cc5ccccc5)CC4)cc3)ncc2F)c1` were, in that order, 0.283 µM, 2.07 µM and above 40 µM.
Taken in the same sequence, the figures for `C=CC(=O)Nc1cccc(Nc2nc(Nc3ccc(OCCCSC(=S)NCc4cccnc4)cc3)ncc2F)c1` were 0.00239 µM, 1.42 µM and 1.02 µM.
The like results for `C=CC(=O)Nc1cccc(Nc2nc(Nc3ccc(OCCSC(=S)N(CCC)CCC)cc3)ncc2F)c1` were, in that order, 0.241 µM, above 40 µM and above 40 µM.

The term IC50 denotes the concentration needed to halve the response being measured.
